Results published in publication PMC4433817 (Journal of molecular biology, 2015).

Target: IspG (GcpE) (Thermus thermophilus, UniProt Q5SLI8)
Experiment: co-crystal X-ray structure
Format: biochemical

Sequence of IspG (GcpE) (Q5SLI8 whole entry): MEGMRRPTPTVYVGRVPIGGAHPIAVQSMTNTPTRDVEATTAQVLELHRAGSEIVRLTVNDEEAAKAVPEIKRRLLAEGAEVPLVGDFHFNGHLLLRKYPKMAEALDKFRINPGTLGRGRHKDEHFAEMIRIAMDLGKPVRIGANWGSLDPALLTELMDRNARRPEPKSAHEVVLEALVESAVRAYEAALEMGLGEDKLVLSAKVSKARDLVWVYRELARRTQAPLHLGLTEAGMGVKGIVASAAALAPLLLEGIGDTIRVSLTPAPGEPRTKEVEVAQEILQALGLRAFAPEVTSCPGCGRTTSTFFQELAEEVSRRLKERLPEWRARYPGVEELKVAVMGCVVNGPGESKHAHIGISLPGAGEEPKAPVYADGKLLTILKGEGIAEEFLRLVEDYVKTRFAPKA

## O=P(O)(O)OP(=O)(O)O [compound 6, diphosphate]
  IC50: 20 µM
